Assay results: publication PMC9995496, “A screen for MeCP2-TBL1 interaction inhibitors using a luminescence-based assay” (Scientific Reports, 2023)
Where a name gives a salt, the structure may show the parent alone. Read-outs that look alike come from different tables or passages of the source.

System: PRKACA-PRKAR2A interaction (SmBiT-PRKACA / LgBiT-PRKAR2A), protein kinase A
Set-up: NanoLuc complementation counter-screen in cell extract, PRKACA with PRKAR2A, loss of luminescence, detects NanoLuc interference
Settings: 0.5 h, 20 µM, inhibitor
[1] = counter-screen for NanoLuc interference
[2] = counter-screen for NanoLuc interference, Inh (PKA)

Row | Compound | Inh (PKA) [1] [%] | further results
1 | CC(C)(C)c1cc(NC(=O)Nc2ccc(-c3cn4c(n3)sc3cc(OCCN5CCOCC5)ccc34)cc2)no1 [UM0130989:03, Quizartinib (AC220)] | 1.247 | 
2 | CNC(=O)c1cc(Oc2ccc(NC(=O)Nc3ccc(Cl)c(C(F)(F)F)c3)cc2)ccn1 [UM0130993:02, Sorafenib Tosylate] |  | Inh (PKA) [2]: 7.099%
3 | COc1ccc(Cl)c(Nc2nc3ccccc3nc2NS(=O)(=O)c2cccc(NC(=O)C(C)(C)N)c2)c1 [UM0130997:02, XL147] | 61.81 | 
4 | Cc1ccc(NC(=O)c2cccc(N(C)C)c2)cc1NC(=O)c1ccc(O)cc1 [UM0130998:02, ZM336372] | 21.08 | 
5 | CCN(CC)CCCCNc1ncc2cc(-c3cc(OC)cc(OC)c3)c(NC(=O)NC(C)(C)C)nc2n1 [UM0131000:03, PD 173074] | 0.205 | 
6 | COc1cc2nccc(Oc3ccc(NC(=O)Nc4ccc(F)cc4F)c(F)c3)c2cc1OC [UM0131001:04, Ki8751] | 5.997 | 
7 | CCN(CC)CCOc1ccc(C(=C(Cl)c2ccccc2)c2ccccc2)cc1 [UM0132668:02, Clomiphene citrate] | 14.01 | 
8 | N[C@@H](Cc1ccc(N(CCCl)CCCl)cc1)C(=O)O [UM0132725:02, Melphalan] |  | Inh (PKA): 3.23
9 | Cn1ccnc1S [UM0132728:02, Methimazole] | 3.033 | 
10 | CCCc1cc(=O)[nH]c(=S)[nH]1 [UM0132755:02, Propylthiouracil] | 1.031 | 
11 | Cn1c(=O)c2nc[nH]c2n(C)c1=O [UM0132766:02, Theophylline] | -0.2913 | 
12 | CNCCc1ccccn1 [UM0132794:02, Betahistine 2HCl] | 2.049 | 
13 | COc1c(C)c2c(c(O)c1C/C=C(\C)CCC(=O)O)C(=O)OC2 [UM0132795:02, Mycophenolic acid] | 1.414 | 
14 | O=c1ccc2cc(O)c(O)cc2o1 [UM0132846:02, 6,7-Dihydroxycoumarin] | 4.392 | 
15 | COc1ccc2c3c1O[C@H]1C[C@@H](O)C=C[C@@]31CCN(C)C2 [UM0132882:02, Galanthamine HBr] |  | Inh (PKA) [2]: 0.1906%
16 | CCOC(=O)[C@H](CCc1ccccc1)N[C@@H](C)C(=O)N1CCC[C@H]1C(=O)O [UM0132889:02, Enalapril Maleate] | -0.0661 | 
17 | Nc1nc(=O)c2nc(CNc3ccc(C(=O)N[C@@H](CCC(=O)O)C(=O)O)cc3)cnc2[nH]1 [UM0132892:02, Folic acid] | 2.052 | 
18 | CC(=O)/N=c1/sc(S(N)(=O)=O)nn1C [UM0132958:02, Methazolamide] | 0.8823 | 
19 | CCN1CCN(c2cc3c(cc2F)c(=O)c(C(=O)O)cn3C2CC2)CC1 [UM0132985:02, Enrofloxacin] | 1.786 | 
20 | C=CC[C@@H]1/C=C(\C)C[C@H](C)C[C@H](OC)[C@H]2O[C@@](O)(C(=O)C(=O)N3CCCC[C@H]3C(=O)O[C@H](/C(C)=C/[C@@H]3CC[C@@H](O)[C@H](OC)C3)[C@H](C)[C@@H](O)CC1=O)[C@H](C)C[C@@H]2OC [UM0132999:02, Tacrolimus (FK506)] | 15.44 | 
21 | CC[C@H](C)C(=O)O[C@H]1C[C@@H](C)C=C2C=C[C@H](C)[C@H](CC[C@@H]3C[C@@H](O)CC(=O)O3)[C@H]21 [UM0133001:02, Lovastatin] | 15.39 | 
22 | CS(=O)(=O)c1ccc(C2=C(c3ccccc3)C(=O)OC2)cc1 [UM0133054:02, Rofecoxib] | 1.384 | 
23 | CCCCC1=NC2(CCCC2)C(=O)N1Cc1ccc(-c2ccccc2-c2nnn[nH]2)cc1 [UM0133057:02, Irbesartan] | 5.211 | 
24 | CC1COc2c(N3CCN(C)CC3)c(F)cc3c(=O)c(C(=O)O)cn1c23 (stereo not shown) [UM0133058:02, Ofloxacin] | -0.3552 | 
25 | Cc1ccc(=O)n(-c2ccccc2)c1 [UM0133133:02, Pirfenidone] | 0.9802 | 

Row | Compound | Inh (PKA) [1] [%] | further results
26 | CCOC(=O)[C@H](CCc1ccccc1)N[C@@H](C)C(=O)N1[C@H](C(=O)O)C[C@@H]2CCC[C@@H]21 [UM0133179:02, Ramipril] | 0.6461 | 
27 | C/C=C1\[C@H]2C=C(C)C[C@]1(N)c1ccc(=O)[nH]c1C2 [UM0133189:02, (-)-Huperzine A] | 0.2799 | 
28 | COc1ccc(-c2oc3c(CC=C(C)C)c(O[C@@H]4O[C@H](CO)[C@@H](O)[C@H](O)[C@H]4O)cc(O)c3c(=O)c2O[C@@H]2O[C@@H](C)[C@H](O)[C@@H](O)[C@H]2O)cc1 [UM0133190:02, Icariin] | 17.39 | 
29 | CNCC[C@H](Oc1cccc2ccccc12)c1cccs1 [UM0133232:02, Duloxetine HCl] | 23.56 | 
30 | CN(C/C=C/C#CC(C)(C)C)Cc1cccc2ccccc12 [UM0133235:02, Terbinafine HCl] | 7.743 | 
31 | Oc1cc(Cl)ccc1Oc1ccc(Cl)cc1Cl [UM0133255:02, Triclosan] | 50.68 | 
32 | CCOC(=O)c1cncn1[C@H](C)c1ccccc1 [UM0133274:02, Etomidate] |  | Inh (PKA): 13.38%
33 | CN1CC(=O)N2[C@H](c3ccc4c(c3)OCO4)c3[nH]c4ccccc4c3C[C@@H]2C1=O [UM0133276:02, Tadalafil] | 5.88 | 
34 | CN(C)CCOc1ccc(/C(=C(/CCCl)c2ccccc2)c2ccccc2)cc1 [UM0133287:02, Toremifene Citrate] | 53.21 | 
35 | CC(=O)NCCCS(=O)(=O)O [UM0133300:02, Acamprosate calcium] | 0.9397 | 
36 | CSc1nc2cc(Cl)c(Oc3cccc(Cl)c3Cl)cc2[nH]1 [UM0133345:02, Triclabendazole] | 37.19 | 
37 | O=C(N/N=C/c1ccc([N+](=O)[O-])o1)c1ccc(O)cc1 [UM0133346:02, Nifuroxazide] | 17.08 | 
38 | CCOC(=O)C1=C[C@@H](OC(CC)CC)[C@H](NC(C)=O)[C@@H](N)C1 [UM0133352:02, Oseltamivir phosphate] |  | Inh (PKA) [2]: -0.5287%
39 | O=C1CCc2ccc(OCCCCN3CCN(c4cccc(Cl)c4Cl)CC3)cc2N1 [UM0133361:02, Aripiprazole] | 19.63 | 
40 | CC1=C(O)C(=O)C=C2C1=CC=C1[C@@]2(C)CC[C@@]2(C)[C@@H]3C[C@](C)(C(=O)O)CC[C@]3(C)CC[C@]12C [UM0133421:02, Celastrol] | 15.02 | 
41 | C/C=C/c1ccc2c(c1)OCO2 [UM0133473:02, Isosafrole] |  | Inh (PKA): 2.424%
42 | Clc1ccc2c(c1)C(N1CCNCC1)=Nc1ccccc1O2 [UM0133517:02, Amoxapine] | 7.389 | 
43 | Nc1ncn([C@@H]2O[C@H](CO)[C@@H](O)[C@H]2O)c(=O)n1 [UM0133525:02, 5-Azacytidine] | 1.069 | 
44 | CN(Cc1cnc2nc(N)nc(N)c2n1)c1ccc(C(=O)N[C@@H](CCC(=O)O)C(=O)O)cc1 [UM0133539:02, Methotrexate] | 2.622 | 
45 | O=c1c(O)c(-c2ccc(O)c(O)c2)oc2cc(O)cc(O)c12 [UM0133552:02, Quercetin dihydrate] |  | Inh (PKA) [2]: 33.9%
46 | O=c1c(O)c(-c2ccc(O)c(O)c2)oc2cc(O)cc(O)c12 [UM0133552:03, Quercetin] |  | Inh (PKA) [2]: 26.1%
47 | NC(=O)N1c2ccccc2C=Cc2ccccc21 [UM0133618:02, Carbamazepine] | 3.187 | 
48 | NS(=O)(=O)c1cc2c(cc1Cl)N=CNS2(=O)=O [UM0133622:02, Chlorothiazide] | 0.9686 | 
49 | Cc1nnc(SCC2=C(C(=O)O)N3C(=O)[C@@H](NC(=O)Cn4cnnn4)[C@H]3SC2)s1 [UM0133624:02, Cefazolin (sodium salt)] | 0.1508 | 
